Source: PMC4261083, “An atypical residue in the pore of Varroa destructor GABA-activated RDL receptors affects picrotoxin block and thymol modulation” (Insect Biochemistry and Molecular Biology, 2014)
Where a chain is given by its changes, count along the chain named.

Legend:
Experiment in all cases: GABA activation of RDL receptors, two electrode voltage clamp in Xenopus oocytes
Format in all cases: cell-based
[1] = target: T1, A21′Q mutant Drosophila RDL receptor (Drosophila melanogaster, UniProt P25123, A320Q)
T1 construct: expressed in transfected cells; host or cells: Xenopus laevis oocytes injected with cRNA
T1 sequence (P25123 45-606 A320Q): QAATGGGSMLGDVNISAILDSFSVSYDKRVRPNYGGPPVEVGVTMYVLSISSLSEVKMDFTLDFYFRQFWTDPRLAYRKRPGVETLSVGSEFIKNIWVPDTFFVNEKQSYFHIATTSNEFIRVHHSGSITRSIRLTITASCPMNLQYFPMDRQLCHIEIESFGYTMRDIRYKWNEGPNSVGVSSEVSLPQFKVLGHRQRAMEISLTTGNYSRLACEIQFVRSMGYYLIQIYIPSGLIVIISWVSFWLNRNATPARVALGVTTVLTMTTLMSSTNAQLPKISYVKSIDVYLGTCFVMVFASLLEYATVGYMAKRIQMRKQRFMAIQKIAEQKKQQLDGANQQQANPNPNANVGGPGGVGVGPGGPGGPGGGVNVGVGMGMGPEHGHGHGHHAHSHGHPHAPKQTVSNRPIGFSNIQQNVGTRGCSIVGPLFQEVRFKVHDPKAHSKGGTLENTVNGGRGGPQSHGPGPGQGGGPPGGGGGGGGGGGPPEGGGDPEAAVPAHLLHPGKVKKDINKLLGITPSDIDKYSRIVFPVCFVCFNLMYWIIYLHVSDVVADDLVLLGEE
Experimental: (§1) X. laevis oocyte-positive females were purchased from NASCO (Fort Atkinson, Wisconsin, USA) and maintained according to standard methods. Harvested stage V-VI Xenopus oocytes were washed in four changes of ND96 (96 mM NaCl, 2 mM KCl, 1 mM MgCl2, 1 mM CaCl2, 5 mM HEPES, pH 7.5), de-folliculated in 1.5 mg ml^−1 collagenase Type 1A for approximately 2 h, washed again in four changes of ND96 and stored in ND96 containing 2.5 mM sodium pyruvate, 0.7 mM theophylline and […].
(§2) Site directed mutagenesis was performed with the QuikChange mutagenesis kit (Agilent, La Jolla, CA). cRNA was transcribed in vitro from linearised pGEMHE cDNA template using the mMessage mMachine T7 Transcription kit (Ambion, Austin, Texas, USA). Stage V and VI oocytes were injected with 5 ng cRNA, incubated at 18 °C, and currents recorded 18–24 h post-injection.
(§3) Currents were recorded at 5 kHz and filtered at a frequency of 1 kHz. Micro-electrodes were fabricated from borosilicate glass (GC120TF-10, Harvard Apparatus, Edenbridge, Kent, UK) using a one stage horizontal pull (P-87, Sutter Instrument Company, California, USA) and filled with 3 M KCl. […] Oocytes were perfused with ND96 at a constant rate of 12 ml min^−1. Drug application was via a simple gravity fed system calibrated to run at the same rate.
(§4) Analysis and curve fitting was performed using Prism v5 (GraphPad Software, San Diego, California, USA). Concentration-response data for each oocyte was normalised to the maximum current for that oocyte. The mean and S.E.M. for a series of oocytes were fitted to the four parameter logistic equation in Prism.

[2] = target: T2, wild type Drosophila RDL receptor (Drosophila melanogaster, UniProt P25123)
T2 construct: expressed in transfected cells; host or cells: Xenopus laevis oocytes injected with cRNA
T2 sequence (P25123 45-606): T1 sequence (P25123 45-606 A320Q) with Q276A
Experimental: as §1, §2, §3, §4

[3] = target: T3, A20′S mutant Drosophila RDL receptor (Drosophila melanogaster, UniProt P25123, A319S)
T3 construct: expressed in transfected cells; host or cells: Xenopus laevis oocytes injected with cRNA
T3 sequence (P25123 45-606 A319S): T1 sequence (P25123 45-606 A320Q) with A275S, Q276A
Experimental: as §1, §2, §3, §4

For `NCCCC(=O)O` [GABA], which “GABA nH (Hill slope)” value [1] is on record?
Its value is 1.9 ± 0.4.

What about the “GABA nH (Hill slope)” value [2] of the same compound?
The value was 1.6 ± 0.5.

And the “GABA nH (Hill slope)” value [3]?
The value was 1.6 ± 0.4.
